Laboratory results reported in US7807663B2, “Therapeutic agents for diabetes” (Ajinomoto Co., Inc., priority 2003, dated 2010).

Test system: adipose cells of rats
Experiment: Evaluation of the sugar transportation activity (2-[14C(U)]-deoxy-D-glucose incorporation)
Assay type: cell-based, Wistar rats
Conditions: concentration with reinforcing effect of 50% of that of insulin (100 nM) = 100%; rat adipose cells, 30 min pre-culture at 37° C., 5 min uptake
Procedure: 1. Preparation of Adipose Cells of Rats:
After the decapitation and venesection of 6 male Wistar rats (body weight: 150 to 200 g), an incision was made in the abdomen of each rat to extract 6 g in total of epididymal adipose tissues. The tissues were finely cut into 2 mm×2 mm pieces in 6 ml of KRH (Krebs-Ringer Hepes, composition: 130 mM of sodium chloride, 4.7 mM of potassium chloride, 1.2 mM of potassium dihydrogenphosphate, 1.2 mM of magnesium sulfate, 1 mM of calcium chloride and 25 mM of Hepes, pH=7.6) containing 5% of BSA (bovine serum albumin). 24 mg of collagenase (type I) was added thereto and the digestion treatment was conducted for about 40 minutes to obtain about 6 ml of isolated adipose cells. The collagenase was removed by the buffer exchange. 2% BSA/KRH solution was added to the residue for the re-suspension to obtain 45 ml of an adipose cell suspension.
2. Evaluation of the Sugar Transportation Activity:
The sugar transportation activity of the compound (I) of the present invention was evaluated with reference to a method described in a literature [Annual Review of Biochemistry, Vol. 55, p. 1059 (1986)]. In the test, 200 μL of the adipose cell suspension was poured in each polystyrene test tube, 100 μL of the solution of the test substance (by dilution of 10 mg/mL dimethyl sulfoxide solution with KRH) was added thereto, and the obtained mixture was shaken and then cultured at 37° C. for 30 minutes. The sugar transportation activity was evaluated by measuring the quantity of 2-[^14C(U)]-deoxy-D-glucose incorporated per a unit time. Namely, 2-[^14C(U)]-deoxy-D-glucose was added to the adipose cell suspension after the pre-culture (the final concentration: 0.5 μCi/sample). 5 minutes after, cytochalasin B (final concentration: 10 μM) was added to the mixture to terminate the sugar transportation. After forming a dinonyl phthalate layer, the obtained mixture was centrifuged to separate the adipose cells from the buffer. The quantity of 2-[^14C(U)]-deoxy-D-glucose contained in the adipose cell layer was determined with a liquid scintillation counter to determine the quantity of the incorporated sugar. In this evaluation system, when insulin (100 nM) having the effect of reinforcing the sugar transportation was used, the effect was about 7 times as high as that obtained in the insulin-free control group.
The results of the evaluation of the sugar transportation activity obtained by using 100 μg/mL of the compound (I) of the present invention are shown in Table 3. The sugar transportation activity in Table 3 was evaluated on the basis of the reinforcing effect of insulin (100 nM). The sugar transportation activity A in Table 3 was determined in terms of the concentration (EC50: μg/mL) of a test compound, having a reinforcing effect corresponding to 50% on the basis of the reinforcing effect of insulin (100 nM) having a reinforcing effect of 100%.
The symbols in Table 3 are as follows: • No: Compound No. in Tables 1 and 2, and • A: sugar transportation activity.

Compound | A: sugar transportation activity (EC50) [µg/mL]
COC(=O)N1[C@@H]2CCCC[C@H]2NC2=C(C(=O)NC2)[C@H]1c1ccccc1C [Compound 90] | 2
CCC(=O)N1[C@@H]2CCCC[C@H]2NC2=C(C(=O)NC2)[C@H]1c1ccccc1C [Compound 83] | 2
CCC(=O)N1[C@@H]2CCCC[C@H]2NC2=C(C(=O)NC2)[C@H]1c1ccccc1CC [Compound 94] | 2.2
Cc1ccccc1[C@@H]1C2=C(CNC2=O)N(C)[C@@H]2CCCC[C@H]2N1C(=O)CO [Compound 92] | 1.5
COc1ccccc1[C@@H]1C2=C(CNC2=O)N[C@@H]2CCCC[C@H]2N1C(=O)CCN [Compound 23] | 8
O=C1NCC2=C1[C@@H](c1ccccc1C1CC1)N(C(=O)CO)[C@@H]1CCCC[C@H]1N2 [Compound 104] | 0.8
CC(=O)N1[C@@H]2CCCC[C@H]2NC2=C(C(=O)NC2)[C@H]1c1ccc(Br)cc1 [Compound 139] | 17
CC(=O)N1[C@@H]2CCCC[C@H]2NC2=C(C(=O)NC2)[C@H]1c1ccccc1Br [Compound 114] | 6
CC(=O)N1[C@@H]2CCCC[C@H]2NC2=C(C(=O)NC2)[C@H]1c1ccccc1N [Compound 136] | 12
COc1ccccc1[C@@H]1C2=C(CNC2=O)N[C@@H]2CCCC[C@H]2N1C(=O)OCc1ccccc1 [Compound 39] | 6
CC(=O)N1[C@@H]2CCCC[C@H]2NC2=C(C(=O)NC2)[C@H]1c1ccccc1O [Compound 66] | 3.7
CC(=O)N1[C@@H]2CCCC[C@H]2NC2=C(C(=O)NC2)[C@H]1c1cccc(F)c1C [Compound 107] | 6
COc1cccc([C@@H]2C3=C(CNC3=O)N[C@@H]3CCCC[C@H]3N2C(C)=O)c1OC [Compound 77] | 12
CCCC(=O)N1[C@@H]2CCCC[C@H]2NC2=C(C(=O)NC2)[C@H]1c1ccccc1OCC [Compound 48] | 1.3
CCOC(=O)N1[C@@H]2CCCC[C@H]2NC2=C(C(=O)NC2)[C@H]1c1ccccc1OCC [Compound 55] | 7
COc1ccccc1[C@@H]1C2=C(CNC2=O)N[C@@H]2CCCC[C@H]2N1C(=O)C(F)(F)F [Compound 5] | 4.5
CCOCC(=O)N1[C@@H]2CCCC[C@H]2NC2=C(C(=O)NC2)[C@H]1c1ccccc1OCC [Compound 53] | 4
COC(=O)N1[C@@H]2CCCC[C@H]2NC2=C(C(=O)NC2)[C@H]1c1ccccc1Cl [Compound 122] | 2.4
CCC(=O)N1[C@@H]2CCCC[C@H]2NC2=C(C(=O)NC2)[C@H]1c1ccccc1OC [Compound 2] | 0.77
CCOCC(=O)N1[C@@H]2CCCC[C@H]2NC2=C(C(=O)NC2)[C@H]1c1ccccc1F [Compound 126] | 2
COc1cc(Cl)ccc1[C@@H]1C2=C(CNC2=O)N[C@@H]2CCCC[C@H]2N1C(C)=O [Compound 73] | 6
O=C1NCC2=C1[C@@H](c1ccccc1F)N(C(=O)C1CC1)[C@@H]1CCCC[C@H]1N2 [Compound 125] | 2
COc1ccccc1[C@@H]1C2=C(CNC2=O)N[C@@H]2CCCC[C@H]2N1C(=O)c1ccncc1 [Compound 35] | 18
COc1ccccc1[C@@H]1C2=C(CNC2=O)N[C@@H]2CCCC[C@H]2N1C(=O)COc1ccccc1 [Compound 12] | 4.6
COC(=O)N1[C@@H]2CCCC[C@H]2NC2=C(C(=O)NC2)[C@H]1c1ccccc1OC(C)C [Compound 60] | 4.8
COc1ccc(F)cc1[C@@H]1C2=C(CNC2=O)N[C@@H]2CCCC[C@H]2N1C(C)=O [Compound 76] | 10

Compound | A: sugar transportation activity (EC50) [µg/mL]
COC(=O)CC(=O)N1[C@@H]2CCCC[C@H]2NC2=C(C(=O)NC2)[C@H]1c1ccccc1Br [Compound 111] | 1.5
COc1ccccc1[C@@H]1C2=C(CNC2=O)N[C@@H]2CCCC[C@H]2N1C(=O)COC(C)=O [Compound 9] | 5.9
CCc1ccccc1[C@@H]1C2=C(CNC2=O)N[C@@H]2CCCC[C@H]2N1C(=O)COC [Compound 97] | 6
CCOc1ccccc1[C@@H]1C2=C(CNC2=O)N[C@@H]2CCCC[C@H]2N1C(=O)COC [Compound 52] | 3.6
COCC(=O)N1[C@@H]2CCCC[C@H]2NC2=C(C(=O)NC2)[C@H]1c1ccccc1Cl [Compound 119] | 5
CCCNC(=O)N1[C@@H]2CCCC[C@H]2NC2=C(C(=O)NC2)[C@H]1c1ccccc1OC [Compound 42] | 7
COCC(=O)N1[C@@H]2CCCC[C@H]2NC2=C(C(=O)NC2)[C@H]1c1ccccc1Br [Compound 113] | 6
CC(=O)N1[C@@H]2CCCC[C@H]2NC2=C(C(=O)NC2)[C@H]1c1ccccc1OCc1ccccc1 [Compound 64] | 3.6
COCC(=O)N1[C@@H]2CCCC[C@H]2NC2=C(C(=O)NC2)[C@H]1c1ccccc1OC [Compound 10] | 2
CCC(=O)N1[C@@H]2CCCC[C@H]2NC2=C(C(=O)NC2)[C@H]1c1ccccc1Cl [Compound 116] | 3
COc1ccccc1[C@@H]1C2=C(CNC2=O)N[C@@H]2CCCC[C@H]2N1C(=O)CC(C)=O [Compound 29] | 5.5
COc1ccccc1[C@@H]1C2=C(CNC2=O)N[C@@H]2CCCC[C@H]2N1C(=O)C1CC1 [Compound 4] | 0.5
Cc1ccccc1[C@@H]1C2=C(CNC2=O)N[C@@H]2CCCC[C@H]2N1C(=O)CO [Compound 86] | 2.5
CCOCC(=O)N1[C@@H]2CCCC[C@H]2NC2=C(C(=O)NC2)[C@H]1c1ccccc1O [Compound 65] | 1
CC(=O)N1[C@@H]2CCCC[C@H]2NC2=C(C(=O)NC2)[C@H]1c1ccccc1OC(C)C [Compound 57] | 14
CCCC(=O)N1[C@@H]2CCCC[C@H]2NC2=C(C(=O)NC2)[C@H]1c1ccccc1OC [Compound 3] | 4.6
CC=CC(=O)N1[C@@H]2CCCC[C@H]2NC2=C(C(=O)NC2)[C@H]1c1ccccc1OC [Compound 16] | 1.1
CCOc1ccccc1[C@@H]1C2=C(CNC2=O)N[C@@H]2CCCC[C@H]2N1C(=O)COC(C)=O [Compound 50] | 13
COc1ccccc1[C@@H]1C2=C(CNC2=O)N[C@@H]2CCCC[C@H]2N1C(=O)C(F)(F)C(F)(F)F [Compound 7] | 9.5
CCOc1ccccc1[C@@H]1C2=C(CNC2=O)N[C@@H]2CCCC[C@H]2N1C(C)=O [Compound 46] | 15
CCOc1ccccc1[C@@H]1C2=C(CNC2=O)N[C@@H]2CCCC[C@H]2N1C(=O)CO [Compound 51] | 3.8
COc1ccccc1[C@@H]1C2=C(CNC2=O)N[C@@H]2CCCC[C@H]2N1C(=O)c1cnccn1 [Compound 36] | 8.6
COC(=O)CC(=O)N1[C@@H]2CCCC[C@H]2NC2=C(C(=O)NC2)[C@H]1c1ccccc1Cl [Compound 121] | 2
COc1ccccc1[C@@H]1C2=C(CNC2=O)N[C@@H]2CCCC[C@H]2N1C(=O)c1ccccn1 [Compound 33] | 10
CCOCC(=O)N1[C@@H]2CCCC[C@H]2NC2=C(C(=O)NC2)[C@H]1c1ccccc1Br [Compound 112] | 8.6
COCCC(=O)N1[C@@H]2CCCC[C@H]2NC2=C(C(=O)NC2)[C@H]1c1ccccc1OC [Compound 24] | 3.4

Same assay, conditions: insulin 100 nM; rat adipose cells

Compound | effect of reinforcing the sugar transportation relative to insulin-free control group
insulin [reference compound] | about 7 times
